Experimental findings from ChEMBL document CHEMBL3758126, “Synthesis of 4-sulfamoylphenyl-benzylamine derivatives with inhibitory activity against human carbonic anhydrase isoforms I, II, IX and XII” (Bioorg Med Chem, 2016) are described below.

Assay [1] addresses Carbonic anhydrase 9 (Homo sapiens, UniProt Q16790).
Description: Inhibition of human recombinant carbonic anhydrase 9 preincubated for 15 mins by stopped-flow CO2 hydrase assay
The target of assay [2] is Carbonic anhydrase 1 (Homo sapiens, UniProt P00915).
Description: Inhibition of human recombinant carbonic anhydrase 1 preincubated for 15 mins by stopped-flow CO2 hydrase assay
Assay [3] concerns the target Carbonic anhydrase 12 (Homo sapiens, UniProt O43570).
Description: Inhibition of human recombinant carbonic anhydrase 12 preincubated for 15 mins by stopped-flow CO2 hydrase assay

Sequence of Carbonic anhydrase 1 (P00915 whole entry): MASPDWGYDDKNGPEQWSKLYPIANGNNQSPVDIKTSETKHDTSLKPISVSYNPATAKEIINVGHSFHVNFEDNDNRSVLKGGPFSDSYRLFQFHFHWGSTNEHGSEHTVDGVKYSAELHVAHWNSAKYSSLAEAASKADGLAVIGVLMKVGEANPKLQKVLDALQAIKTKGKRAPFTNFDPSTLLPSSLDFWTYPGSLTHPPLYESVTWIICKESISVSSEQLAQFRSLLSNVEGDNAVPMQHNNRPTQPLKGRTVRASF
Sequence of Carbonic anhydrase 12 (O43570 whole entry): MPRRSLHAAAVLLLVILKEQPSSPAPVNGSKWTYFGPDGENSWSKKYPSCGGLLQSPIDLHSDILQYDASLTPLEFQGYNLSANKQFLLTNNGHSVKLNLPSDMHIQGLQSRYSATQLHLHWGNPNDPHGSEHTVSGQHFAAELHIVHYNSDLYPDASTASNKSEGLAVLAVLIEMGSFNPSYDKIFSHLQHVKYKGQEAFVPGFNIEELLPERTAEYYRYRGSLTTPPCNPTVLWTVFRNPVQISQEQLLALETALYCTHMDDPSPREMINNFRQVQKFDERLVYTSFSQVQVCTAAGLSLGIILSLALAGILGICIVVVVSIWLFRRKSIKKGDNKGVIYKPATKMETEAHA

For orientation: Ki means the equilibrium dissociation constant of an inhibitor or competing ligand from its target. Higher therefore signals weaker binding. For the molecule `Cc1cccc(/C=N/c2ccc(S(N)(=O)=O)cc2)c1O`, the Ki in assay [1] is 465 nM.

In turn, `NS(=O)(=O)c1ccc(/N=C/c2ccccc2O)cc1` displayed a Ki in assay [1] of 952 nM.

Regarding `NS(=O)(=O)c1ccc(/N=C/c2cc(Br)cc(Br)c2O)cc1`, the Ki in assay [2] is > 50000 nM; in assay [1], 360 nM.

Regarding `NS(=O)(=O)c1ccc(NCc2cc(Cl)ccc2O)cc1`, in assay [1], the affinity corresponds to a Ki of 2.4 nM.

`NS(=O)(=O)c1ccc(NCc2cc(Cl)cc(Cl)c2O)cc1` gave a Ki in assay [1] of 2.2 nM.

On to `Cc1ccc(/C=N/c2ccc(S(N)(=O)=O)cc2)cc1`, for which the values for the Ki in assay [2] and in assay [3] were > 50000 nM and 9.9 nM, respectively.

Turning to `NS(=O)(=O)c1ccc(/N=C/c2cc(Br)ccc2O)cc1`, the Ki in assay [1] stood at 257 nM.

For `NS(=O)(=O)c1ccc(/N=C/c2cc(Cl)ccc2O)cc1`, the Ki in assay [2] is > 50000 nM; in assay [1], 47.9 nM.

Consider `CN(C)c1ccc(/C=N/c2ccc(S(N)(=O)=O)cc2)cc1`, for which the Ki in assay [2] worked out at 421 nM; in assay [3] it was 8.8 nM; in assay [1], 41.5 nM.

For `CN(C)c1ccc(CNc2ccc(S(N)(=O)=O)cc2)cc1`, the Ki in assay [3] is > 50000 nM; in assay [1], 2.4 nM.

As to `Cc1ccc(CNc2ccc(S(N)(=O)=O)cc2)cc1`, the Ki in assay [1] came to 2.1 nM.

In the case of `NS(=O)(=O)c1ccc(NCc2ccccc2O)cc1`, in assay [1], affinity was put at a Ki of 2.9 nM.

As to `Cc1cccc(CNc2ccc(S(N)(=O)=O)cc2)c1O`, the Ki in assay [1] worked out at 2.3 nM.

Consider `NS(=O)(=O)c1ccc(NCc2cc(Br)cc(Br)c2O)cc1`, for which the inhibitory constant (Ki) in assay [1] was 2.3 nM.

For the molecule `NS(=O)(=O)c1ccc(/N=C/c2ccc(OCc3ccccc3)cc2)cc1`, the figures for the Ki in assay [2] and in assay [1] were > 50000 nM and 36 nM, respectively.

For the molecule `NS(=O)(=O)c1ccc(/N=C/c2cc(Cl)cc(Cl)c2O)cc1`, the Ki in assay [1] is 35.6 nM. That is a double-digit nanomolar value.

As to `NS(=O)(=O)c1ccc(NCc2ccc(OCc3ccccc3)cc2)cc1`, the inhibition constant (Ki) in assay [1] amounted to 2.5 nM.

Take `NS(=O)(=O)c1ccc(/N=C/c2ccccc2)cc1`: the Ki in assay [2] was > 50000 nM; in assay [3], 11.1 nM; in assay [1], 454 nM.

For `COc1ccc(CNc2ccc(S(N)(=O)=O)cc2)cc1`, the Ki in assay [2] turned out to be 21.9 nM; in assay [3], 427 nM; in assay [1] it was 2.2 nM.

Consider `COc1ccc(/C=N/c2ccc(S(N)(=O)=O)cc2)cc1`, for which the Ki in assay [2] was > 50000 nM; in assay [3] it was 11.2 nM; in assay [1], 883 nM.
